In PubChem BioAssay AID2060910 (Molecular Pharmacology Branch, DTP, NCI, 2025):

System: 242566-281-R-J2-PDC complex spheroid viability
Experiment: Anticancer human tumor 242566-281-R-J2-PDC patient-derived pancreatic carcinoma cell line growth inhibition [RAS]
Conditions: for IC50: curve of first compound; for viability, T/C: stronger effect = lower value
Description: RAS pathway inhibitors in Combinations in Complex Spheroids
A high-throughput screen of multi-cell type tumor spheroids was designed to identify active combinations of RAS pathway inhibitors and targeted small molecules. Complex spheroids include a stromal component modeled by human endothelial cells (HUVEC) and fibroblasts modeled by human mesenchymal stem cells (MSCs). The concentration ranges selected for each drug and investigational agent were based upon clinically achievable concentrations if the clinical Cmax of the agent was known.
Compounds. The drugs and investigational agents: abemaciclib (NSC768073), cobimetinib (NSC768068), divarasib (GDC6063, NSC841802), docetaxel (NSC628503), GDC-1971 (RLY-1971, NSC841576), gemcitabine (NSC613327), inavolisib (NSC800729), ipatasertib (NSC767898), KB-0742 (NSC834161), MRTX-1133 (NSC836407), osimertinib (NSC779217), RMC-4630 (NSC839698), RMC-6236 (NSC851965), RMC-6291 (NSC852671), Ro-3306 (NSC812927), sapanisertib (NSC764658), SN-38 (NSC673596), staurosporine (NSC755774), SY5609 (NSC837396), and tovorafenib (DAY101, NSC766906), were obtained from the National Cancer Institute (NCI) Developmental Therapeutics Program Chemical Repository. The FDA-approved anticancer drug set is available from the NCI Developmental Therapeutics Program. […] The stock solutions were prepared in dimethyl sulfoxide (DMSO, Sigma-Aldrich, St. Louis, MO, cat. D2650) at 800-fold the tested concentration and stored at -70 degrees C prior to their use. All drugs and investigational agents were tested over a range starting from a high concentration at or near the clinical Cmax and decreasing in half-log increments. If the clinical Cmax for an agent had not been determined, the highest concentration tested was 10 microM.
Cell Culture. All cells were maintained in an incubator at 37 degrees C and 5% CO2 with 95% humidity. The PDC lines were cultured according to standard operating procedures established by the NCI PDMR. All PDCs were thawed and cultured in Matrigel-coated flasks prepared with a working solution of 1X Ham's F-12 nutrient mix, without supplementation (Invitrogen, Waltham, MA, cat. 11765054), 100 U/mL penicillin-streptomycin (Invitrogen, cat. 15140122), and 2.5% Matrigel (Corning Inc., Corning, NY, cat. 354248) for the first three passages. The 362531-283-R-J2-PDC and 782815-120-R-J1-PDC lines were cultured in 6C/Colon 1B media, which includes advanced DMEM/F-12 (Thermo Fisher Scientific, cat. 12634028), 10 mM HEPES (Thermo Fisher Scientific, cat. 15630080), 1X GlutaMAX supplement (Thermo Fisher Scientific, cat. 35050061), 0.1 mg/mL primocin (InvivoGen, San Diego, CA, cat. ant-pm-2), 10% defined fetal bovine serum, heat inactivated (HyClone Laboratories Inc., Logan, UT, cat. SH30070.03HI), 50% L-WRN conditioned media (ATCC, cat. CRL-3276), 1.25 mM N-Acetyl-L-cysteine (Sigma-Aldrich, cat. A9165), 10 mM nicotinamide (Sigma-Aldrich, cat. N0636), 1X B-27 supplement (Thermo Fisher Scientific, cat. 17504044), 1X N-2 supplement (Thermo Fisher Scientific, cat. 17502048), 50 ng/mL human EGF (Thermo Fisher Scientific, cat. PHG0311), and 10 microM Y-27632 dihydrochloride (Tocris Bioscience, cat. 1254). The K12877-001-R-J1-PDC line was cultured in 6I media, which includes all 6C/Colon 1B media plus 10 ng/mL human FGF-10 (PeproTech, cat. 100-26), 1 ng/mL human FGF-2 (PeproTech, cat. 100-18B), 1 µM prostaglandin E2 (Tocris Bioscience, cat. 2296), […] hydrocortisone (Sigma-Aldrich, cat. H4001), and […] bovine insulin (Sigma-Aldrich, cat. I6634). The K86415-001-R-J1-PDC line was cultured in 6D media, which includes all 6C/Colon 1B media components minus the L-WRN conditioned media. The 485176-168-R4-J1-PDC was cultured in PANC media, which includes all 6C/Colon 1B media plus 100 ng/mL human FGF-10 (PeproTech, cat. 100-26), 500 nM SB-431542 (Selleckchem, cat. S1067), and 10 nM gastrin (Tocris Bioscience, cat. 3006). […]
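Note: spheroids exposed to compound for 7 days before readout.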
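Throughout, for viability, T/C: 100% = DMSO vehicle control wells.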

Compound: CC(C)NCC(C(=O)N1CCN(c2ncnc3c2C(C)CC3O)CC1)c1ccc(Cl)cc1 (configuration not stated) + C#Cc1c(F)ccc2cc(O)cc(-c3ncc4c(N5CC6CCC(C5)N6)nc(OCC56CCCN5CC(F)C6)nc4c3F)c12
- IC50 (second compound 0.0316 µM): 7270 nM
- IC50 (second compound 0.1 µM): 2950 nM
- IC50 (second compound 0.316 µM): 1750 nM
- IC50 (second compound 1 µM): 701 nM
- IC50 (second compound 3.16 µM): 404 nM
- IC50 (second compound 10 µM): 392 nM
- viability, T/C (second compound 0.0316 µM, first compound 0.0316 µM): 74.9%
- viability, T/C (second compound 0.0316 µM, first compound 0.1 µM): 116%
- viability, T/C (second compound 0.0316 µM, first compound 0.316 µM): 86.2%
- viability, T/C (second compound 0.0316 µM, first compound 1 µM): 84.8%
- viability, T/C (second compound 0.0316 µM, first compound 3.16 µM): 66.6%
- viability, T/C (second compound 0.0316 µM, first compound 10 µM): 43.7%
- viability, T/C (second compound 0.1 µM, first compound 0.0316 µM): 97.8%
- viability, T/C (second compound 0.1 µM, first compound 0.1 µM): 78.6%
- viability, T/C (second compound 0.1 µM, first compound 0.316 µM): 74.5%
- viability, T/C (second compound 0.1 µM, first compound 1 µM): 54.8%
- viability, T/C (second compound 0.1 µM, first compound 3.16 µM): 58%
- viability, T/C (second compound 0.1 µM, first compound 10 µM): 34.5%
- viability, T/C (second compound 0.316 µM, first compound 0.0316 µM): 81.2%
- viability, T/C (second compound 0.316 µM, first compound 0.1 µM): 81.1%
- viability, T/C (second compound 0.316 µM, first compound 0.316 µM): 64.9%
- viability, T/C (second compound 0.316 µM, first compound 1 µM): 55%
- viability, T/C (second compound 0.316 µM, first compound 3.16 µM): 45.8%
- viability, T/C (second compound 0.316 µM, first compound 10 µM): 23.9%
- viability, T/C (second compound 1 µM, first compound 0.0316 µM): 71.8%
- viability, T/C (second compound 1 µM, first compound 0.1 µM): 68.3%
- viability, T/C (second compound 1 µM, first compound 0.316 µM): 59.4%
- viability, T/C (second compound 1 µM, first compound 1 µM): 41.4%
- viability, T/C (second compound 1 µM, first compound 3.16 µM): 37.5%
- viability, T/C (second compound 1 µM, first compound 10 µM): 18.4%
- viability, T/C (second compound 3.16 µM, first compound 0.0316 µM): 62.8%
- viability, T/C (second compound 3.16 µM, first compound 0.1 µM): 64.2%
- viability, T/C (second compound 3.16 µM, first compound 0.316 µM): 53.9%
- viability, T/C (second compound 3.16 µM, first compound 1 µM): 34.5%
- viability, T/C (second compound 3.16 µM, first compound 3.16 µM): 24.8%
- viability, T/C (second compound 3.16 µM, first compound 10 µM): 16.4%
- viability, T/C (second compound 10 µM, first compound 0.0316 µM): 61.6%
- viability, T/C (second compound 10 µM, first compound 0.1 µM): 59.6%
- viability, T/C (second compound 10 µM, first compound 0.316 µM): 52.7%
- viability, T/C (second compound 10 µM, first compound 1 µM): 38.1%
- viability, T/C (second compound 10 µM, first compound 3.16 µM): 22%
- viability, T/C (second compound 10 µM, first compound 10 µM): 14.3%
